Assay: Inhibition of Her2 sheddase activity in BT474 cell line

Which IC50 does the source give for `O=C(NO)[C@H]1CC2(CC2)CN[C@@H]1C(=O)N1CCN2c3ccccc3CC2C1` (stereo partly drawn) [(6S,7S)-N-hydroxy-6-(3,4,10,10a-tetrahydropyrazino[1,2-a]indol-2(1H)-ylcarbonyl)-5-azaspiro[2.5]octane-7-carboxamide] here?
Its IC50 is 0.28 µM.

Which IC50 does the source give for `O=C(NO)[C@H]1CC2(CC2)CN[C@@H]1C(=O)N1CCC(c2ccccc2)CC1` [(6S,7S)-N-hydroxy-6-[(4-phenylpiperidin-1-yl)carbonyl]-5-azaspiro[2.5]octane-7-carboxamide] here?
Its IC50 is 0.14 µM.

For `O=C(NO)[C@H]1CCCN[C@@H]1C(=O)N1CC[C@H](c2ccccc2)C1` [(2S,3S)-N-hydroxy-2-((R)-3-phenylpyrrolidine-1-carbonyl)piperidine-3-carboxamide], which IC50 is on record?
Its IC50 is 0.56 µM.

— BindingDB's records for doi:10.1021/jm061344o (Incyte, 2007)
